Each compound was assayed on normal human melanocytes (assay: Depigmenting activity (reduction of melanin production) in normal human melanocytes in vitro). Conditions: run 1, 72 hours incubation, optical density (melanin).
Type: cell-based
Method: The measurement of the depigmenting activity (reduction of melanin production) of compounds of formula (I) was performed by assaying normal human melanocytes in vitro as follows.
First, normal human melanocytes are cultured and distributed in wells. After 24 hours, the culture medium was replaced with a medium containing the compounds of formula (I) to be evaluated. The cells were incubated for 72 hours before measuring the final optical density, which measures the amount of melanin produced by the melanocytes. The compounds are tested at 100 μM after calibration.
Various test runs were performed and the results are collated in the following table.

Row | Structure (SMILES) | % Depigmentation at 100 μM (run 1) [%]
1 | NC(=O)[C@@H](CO)NC(=O)C(O)[C@@H]1OC[C@@H](O)[C@H](O)C1O (single isomer, unassigned) [Compound 11-dia1] | 28
2 | O=C(O)c1ccc(NC(=O)C(O)C2O[C@H](CO)[C@@H](O)[C@H](O)[C@H]2O)cc1O (stereo partly shown) [Compound 1] | 13
3 | NC(=O)CNC(=O)C(O)[C@@H]1O[C@H](CO)[C@@H](O)[C@H](O)C1O (stereo partly shown) [Compound 4] | 19
4 | NC(=O)[C@@H](CO)NC(=O)C(O)[C@@H]1O[C@H](CO)[C@@H](O)[C@H](O)C1O (stereo partly shown) [Compound 5] | 31
5 | NC(=O)C1CCCN1C(=O)C(O)[C@@H]1O[C@H](CO)[C@@H](O)C(O)C1O (stereo partly shown) [Compound 6] | 29
6 | NC(=O)CCNC(=O)C(O)[C@@H]1O[C@H](CO)[C@@H](O)[C@H](O)C1O (stereo partly shown) [Compound 7] | 34
7 | NC(=O)CNC(=O)C(O)[C@@H]1OC[C@@H](O)[C@H](O)C1O (stereo partly shown) [Compound 10] | 20

Same assay, conditions: run 2, 72 hours incubation, optical density (melanin)

Row | Structure (SMILES) | % depigmentation at 100 μM (run 2) [%]
8 | NC(=O)[C@@H](CO)NC(=O)C(O)[C@@H]1OC[C@@H](O)[C@H](O)C1O (single isomer, unassigned) [Compound 11-dia2] | 32
9 | CCOC(=O)[C@@H](CO)NC(=O)C(OC(C)=O)C1OC[C@@H](OC(C)=O)[C@H](OC(C)=O)[C@H]1O (single isomer, unassigned) [Compound 20-dia1] | 23
10 | CCOC(=O)[C@@H](CO)NC(=O)C(O)[C@@H]1OC[C@@H](O)[C@H](O)C1O (stereo partly shown) [Compound 12] | 20
11 | CCOC(=O)CNC(=O)C(OC(C)=O)C1OC[C@@H](OC(C)=O)[C@H](OC(C)=O)[C@H]1O (stereo partly shown) [Compound 19] | 15

What follows are compounds tested on normal human melanocytes in the same assay as above. Conditions: 200 μM (max dose tested).
Type: cell-based

Row | Structure (SMILES) | % depigmentation at the max dose tested 200 μM (run 2) [%]
12 | CCOC(=O)[C@@H](CO)NC(=O)C(O)[C@@H]1OC[C@@H](O)[C@H](O)C1O (stereo partly shown) [Compound 12] | 28
13 | CCOC(=O)CNC(=O)C(OC(C)=O)C1OC[C@@H](OC(C)=O)[C@H](OC(C)=O)[C@H]1O (stereo partly shown) [Compound 19] | 43
